Among the data in ChEMBL document CHEMBL1147100, “Metronidazole plus rifampin sterilizes long-term dormant Mycobacterium tuberculosis” (Antimicrob Agents Chemother, 2007) are Activity values, retold here.

Calls of active or inactive are those of the source. No cut-off for these calls is given here.

Holding throughout (format): functional, organism-based
The subject of assay [1] is Mycobacterium tuberculosis. Put plainly: Bactericidal activity against 19-day old non-replicating Mycobacterium tuberculosis H37Rv in anaerobic condition at 8 ug/ml after 4 days by Wayne dormancy culture model.
In assay [2] the test system is Mycobacterium tuberculosis. Put plainly: Bactericidal activity against 12-day old non-replicating Mycobacterium tuberculosis H37Rv in anaerobic condition at 8 ug/ml after 4 days by Wayne dormancy culture model.
Assay [3] concerns Mycobacterium tuberculosis. Kind of assay: Bactericidal activity against 5-day old actively replicating Mycobacterium tuberculosis H37Rv in aerobic condition at 8 ug/ml by Wayne dormancy culture model.
Assay [4] relates to Mycobacterium tuberculosis. Put plainly: Bactericidal activity against 12-day old non-replicating Mycobacterium tuberculosis H37Rv in anaerobic condition at 8 ug/ml after 11 days by Wayne dormancy culture model.
In assay [5] the test system is Mycobacterium tuberculosis. Put plainly: Bactericidal activity against 26-day old non-replicating Mycobacterium tuberculosis H37Rv in anaerobic condition at 8 ug/ml after 4 days by Wayne dormancy culture model.
In assay [6] the test system is Mycobacterium tuberculosis. Put plainly: Bactericidal activity against 26-day old non-replicating Mycobacterium tuberculosis H37Rv in anaerobic condition at 8 ug/ml after 11 days by Wayne dormancy culture model.
In assay [7] the test system is Mycobacterium tuberculosis. Kind of assay: Bactericidal activity against 26-day old non-replicating Mycobacterium tuberculosis H37Rv in anaerobic condition at 8 ug/ml after 1 day by Wayne dormancy culture model.
The test system of assay [8] is Mycobacterium tuberculosis. Kind of assay: Bactericidal activity against 19-day old non-replicating Mycobacterium tuberculosis H37Rv in anaerobic condition at 8 ug/ml after 11 days by Wayne dormancy culture model.
The test system of assay [9] is Mycobacterium tuberculosis. Put plainly: Bactericidal activity against 12-day old non-replicating Mycobacterium tuberculosis H37Rv in anaerobic condition at 8 ug/ml after 1 day by Wayne dormancy culture model.
Assay [10] has as its system Mycobacterium tuberculosis. Kind of assay: Bactericidal activity against 19-day old non-replicating Mycobacterium tuberculosis H37Rv in anaerobic condition at 8 ug/ml after 1 day by Wayne dormancy culture model.
For assay [11], the system named is Mycobacterium tuberculosis. Put plainly: Bactericidal activity against 12-day old non-replicating Mycobacterium tuberculosis H37Rv in anaerobic condition at 1 ug/ml after 1 day by Wayne dormancy culture model.
Assay [12] deals with Mycobacterium tuberculosis. Put plainly: Bactericidal activity against 19-day old non-replicating Mycobacterium tuberculosis H37Rv in anaerobic condition at 1 ug/ml after 11 days by Wayne dormancy culture model.
Assay [13] deals with Mycobacterium tuberculosis. Kind of assay: Bactericidal activity against 19-day old non-replicating Mycobacterium tuberculosis H37Rv in anaerobic condition at 1 ug/ml after 1 day by Wayne dormancy culture model.
Assay [14] relates to Mycobacterium tuberculosis. Kind of assay: Bactericidal activity against 12-day old non-replicating Mycobacterium tuberculosis H37Rv in anaerobic condition at 1 ug/ml after 4 days by Wayne dormancy culture model.
Assay [15] concerns Mycobacterium tuberculosis. Put plainly: Bactericidal activity against 26-day old non-replicating Mycobacterium tuberculosis H37Rv in anaerobic condition at 1 ug/ml after 4 days by Wayne dormancy culture model.
Assay [16] concerns Mycobacterium tuberculosis. Kind of assay: Bactericidal activity against 26-day old non-replicating Mycobacterium tuberculosis H37Rv in anaerobic condition at 1 ug/ml after 11 days by Wayne dormancy culture model.
For assay [17], the system named is Mycobacterium tuberculosis. Put plainly: Bactericidal activity against 19-day old non-replicating Mycobacterium tuberculosis H37Rv in anaerobic condition at 1 ug/ml after 4 days by Wayne dormancy culture model.
The test system of assay [18] is Mycobacterium tuberculosis. Kind of assay: Bactericidal activity against 5-day old actively replicating Mycobacterium tuberculosis H37Rv in aerobic condition at 1 ug/ml after 4 days by Wayne dormancy culture model.
The test system of assay [19] is Mycobacterium tuberculosis. Put plainly: Bactericidal activity against 26-day old non-replicating Mycobacterium tuberculosis H37Rv at 1 ug/ml after 1 day by Wayne in anaerobic condition dormancy culture model.
For assay [20], the system named is Mycobacterium tuberculosis. Put plainly: Bactericidal activity against 5-day old actively replicating Mycobacterium tuberculosis H37Rv in aerobic condition at 1 ug/ml after 1 day by Wayne dormancy culture model.
The subject of assay [21] is Mycobacterium tuberculosis. Put plainly: Bactericidal activity against 5-day old actively replicating Mycobacterium tuberculosis H37Rv in aerobic condition at 1 ug/ml after 11 days by Wayne dormancy culture model.
In assay [22] the test system is Mycobacterium tuberculosis. Put plainly: Bactericidal activity against 12-day old non-replicating Mycobacterium tuberculosis H37Rv in anaerobic condition at 1 ug/ml after 11 days by Wayne dormancy culture model.

Turning to `Cc1ncc([N+](=O)[O-])n1CCO`, the outcome in assay [1], in assay [2], in [4], in assay [5], in [6] and in [7] was Active. The result in assay [8], in assay [9] and in [10] was Active. Besides, the outcome in assay [3] was inactive.

For the compound `CO[C@H]1/C=C/O[C@@]2(C)Oc3c(C)c(O)c4c(O)c(c(/C=N/N5CCN(C)CC5)c(O)c4c3C2=O)NC(=O)/C(C)=C\C=C\[C@H](C)[C@H](O)[C@@H](C)[C@@H](O)[C@@H](C)[C@H](OC(C)=O)[C@@H]1C`, the result in [11], in [12], in [13], in assay [14], in assay [15] and in assay [16] was Active. In addition, the result in assay [17], in assay [18], in assay [19], in assay [20], in assay [21] and in [22] was Active.
